According to patent US20070208009A1, “COMBINATION OF ANTI-HIV REVERSE TRANSCRIPTASE AND PROTEASE INHIBITORS” (priority 2004, published 2007):
Where two headings read alike, the source gives them in different places.

What was measured:
[1] = ritonavir 100 mg once daily with atazanavir, cited from earlier work
[2] = cited from earlier work; for Geometric mean ratio (95% confidence interval) for the AUC: saquinavir hard gel/ritonavir 1000/100 mg twice daily + tenofovir disoproxil fumarate 300 mg once daily
[3] = Volunteer study of TMC114/ritonavir with tenofovir disoproxil fumarate, pharmacokinetics and tolerability
Procedure: Methods: 13 healthy volunteers were randomised into 2 cohorts.
In session 2, both cohorts received 300 mg tenofovir disoproxil fumarate qd for 14 days.

[4] = healthy subjects, cited from earlier work; for AUC increase / Cmax increase / Cmin increase: saquinavir/ritonavir 1000/100 mg twice daily with tenofovir disoproxil fumarate 300 mg once daily vs alone
[5] = lopinavir/ritonavir 400/100 mg twice daily 14 days + tenofovir 300 mg once daily, healthy volunteers; cited from earlier work
HIV-1 RT = target: T1, HIV-1 RT (Human immunodeficiency virus type 1 group M subtype B, UniProt P04585); conditions: inhibition of HIV-1 RT; competitive with deoxyadenosine triphosphate incorporation; read-out: inhibition constant; cited from earlier work
T1 construct: The primary target of tenofovir diphosphate is reverse transcriptase (RT)

[6] = system: laboratory HIV-1 strains and primary clinical isolates; conditions: cited from earlier work
[7] = atazanavir/ritonavir 300/100 mg once daily, cited from earlier work
[8] = in the presence of tenofovir 300 mg once daily
[9] = tenofovir disoproxil fumarate 300 mg qd with TMC114/ritonavir co-administered vs alone, statistically significant
[10] = after addition of tenofovir disoproxil fumarate 300 mg once daily
[11] = before addition of tenofovir disoproxil fumarate

In the case of CC(C)c1nc(CN(C)C(=O)N[C@H](C(=O)N[C@@H](Cc2ccccc2)C[C@H](O)[C@H](Cc2ccccc2)NC(=O)OCc2cncs2)C(C)C)cs1 [ritonavir], the AUC [1, 8] is listed as 5217 ng·h/mL, the Cmax [1, 8] is listed as 642 ng/mL and the AUC ([1]; without tenofovir, HIV+ subjects) is listed as 7011 ng·h/mL. For the same compound, the Cmax ([1]; without tenofovir) was 886 ng/mL and the “plasma concentrations compared with day 1” value ([2]; in vivo) was “not significantly different”.
In the case of C[C@H](Cn1cnc2c(N)ncnc21)OCP(=O)(O)O [tenofovir], the “urinary excretion of unchanged drug during one dosing interval” value ([3]; in the presence and absence of TMC114/RTV) is reported as “approximately 36%”, the “AUC24h (systemic exposure) increase based on the ratio of LSmeans” value [3, 9] is reported as 22% and the “Cmax increase based on the ratio of LSmeans” value [3, 9] is reported as 24%. For the same compound, the “Cmin increase based on the ratio of LSmeans” value [3, 9] was 37%, the AUC increase [4] was 14% and the Cmax increase [4] was 15%. The Cmin increase [4] was 23%, the AUC increase [5] was 34% and the Cmax increase [5] was 31%. The Cmin increase [5] was 29%.
For CC(C)(C)NC(=O)[C@@H]1C[C@@H]2CCCC[C@@H]2CN1C[C@@H](O)[C@H](Cc1ccccc1)NC(=O)[C@H](CC(N)=O)NC(=O)c1ccc2ccccc2n1 [saquinavir], the AUC increase [4] is listed as 29%, the Cmax increase [4] is listed as 22% and the Cmin increase [4] is listed as 47%. The “Cmin achieved by all subjects” value ([4]; saquinavir/ritonavir 1000/100 mg twice daily) was “above 100 ng/ml”, the “Geometric mean ratio (95% confidence interval) for the AUC” value ([2]; day 3 vs day 1) was 1.16 (0.97, 1.59) and the “Geometric mean ratio (95% confidence interval) for the AUC” value ([2]; day 14 vs day 1) was 0.99 (0.87, 1.30). The “plasma concentrations compared with day 1” value ([2]; following the addition of tenofovir disoproxil fumarate) was “not significantly different”.
For CC(Cn1cnc2c(N)ncnc21)OCP(=O)(O)OP(=O)(O)OP(=O)(O)O (stereo in doubt) [tenofovir diphosphate], the Ki (HIV-1 RT) is listed as roughly 900 nM.
In the case of CC(C)CN(C[C@@H](O)[C@H](Cc1ccccc1)NC(=O)OC1CO[C@H]2OCC[C@@H]12)S(=O)(=O)c1ccc(N)cc1 (some centres unmarked) [TMC114], the IC90 [6] is listed as roughly 9 nM and the IC50 ([6]; read-out: 50% inhibitory concentration [IC50]) is listed as roughly 3 nM.
In the case of COC(=O)N[C@H](C(=O)N[C@@H](Cc1ccccc1)[C@@H](O)CN(Cc1ccc(-c2ccccn2)cc1)NC(=O)[C@@H](NC(=O)OC)C(C)(C)C)C(C)(C)C [atazanavir], the “AUC (mean±sd)” value [7, 10] is listed as 39276 ± 23034 ng·h/mL, the “Cmax (mean±sd)” value [7, 10] is listed as 3443 ± 1412 ng/mL and the “AUC (mean±sd)” value [7, 11] is listed as 53761 ± 35255 ng·h/mL. The “Cmax (mean±sd)” value [7, 11] was 5233 ± 3033 ng/mL.
